Consider 10 molecules from US11760775B2, “Steroids and protein-conjugates thereof” (Regeneron Pharmaceuticals, Inc., priority 2016, dated 2023).

Structures can show the parent of a compound that is named as a salt. Where two headings read alike, the source gives them in different places. Some results are limits rather than exact numbers.

The test system of assay [1] is GR activation in 293/PRLR/GRE-Luc cells (HEK293/9xUAS-Luc2P/pBind-GR/PRLR-HA high cells). Description: GR co-activator luciferase reporter cell based assay in 293/PRLR/GRE-Luc cells. Also noted: species or system human. To be noted: for Emax: HEK293, read-out: Activation (fold activation relative to Budesonide) in HEK293/9xUAS-Luc2P/pBind-GR/PRLR-HA high cells; for EC50: read-out: HEK293/9xUAS-Luc2P/pBind-GR/PRLR-HA high cells EC50; for HEK293/9xUAS-Luc2P/pBind-GR/PRLR-HA high cells activation relative to Budesonide: fold activation vs Budesonide.
Description: Bioassays described herein were used to assess the efficacy of free steroids and anti-PRLR-ncADCs. In one example, the bioassay assessed the activity of steroids, after internalization of a site-specific anti-PRLR-GC steroid ADC into cells, to bind to pBIND-GR and subsequent luciferase reporter activation. […] Then such stable cell line was further transfected with a chimeric receptor consisting of a GR ligand binding domain fused to the yeast Gal4 DNA binding domain (pBind-GR, Promega Cat #E1581), and a Gal4 upstream activator sequence (9×Gal4UAS-Luc2P) that drives luciferase gene expression.
(§1) For this assay, 20,000 cells were seeded in 96-well plates in media containing DMEM supplemented with 10% FBS and pencillin/streptomycin (complete media) and grown overnight at 37° C. in 5% CO2. […] Luciferase activity was determined by addition of OneGlo™ reagent (Promega, Cat #E6130) and relative light units (RLUs) were measured on a Victor luminometer (Perkin Elmer). The EC50 values were determined from a four-parameter logistic equation over a 10 point response curve using GraphPad Prism.
as §1, with “One-Glo™” for “OneGlo™”, “10-point” for “10 point”, “Prism. […] Minimal activation in this assay is defined as less than 10% of the maximal activation measured with the free payload.” for “Prism.”
(In general: A reporter such as luciferase makes a cellular process visible.)

For assay [2], the target named is Glucocorticoid Receptor (GR) (Homo sapiens (Human), UniProt P04150). The experiment in a line: LanthaScreen TR-FRET GR Competitive Binding Assay (cell free). (Time-resolved FRET reads energy transfer from a long-lived donor to a nearby acceptor.)
The target in assay [3] is human liver cathepsin B (Homo sapiens (Human), UniProt P07858). Description: Linker-payload cleavage in Cathepsin B assay. To be noted: Mean. It counts as biochemical. On the procedure: The linker-payloads were tested in a Cathepsin B assay. After 4 hr incubation in Cathepsin B (CapB) with and without CapB inhibitor ([…]), both linker-payloads and free payload were evaluated using LC-MS/MS.
The CapB assay procedure follows: Linker-payload stock solution (10 mM in DMSO) was spiked into incubation buffer (100 mM NaOAc, 10 mM dithiothreitol, pH5) to obtain a 50 μM substrate solution. 4 μL of 0.47 μg/μL human liver cathepsin B (Athens Research & Technology, Athens, GA) in 50 mM NaOAc, 1 mM EDTA, pH 5 was added into 196 μL of 50 μM substrate solution. The reaction mixture was incubated at 37° C. for 4 hr. Then 5 μL of acetic acid and 150 μL of acetonitrile (containing osalmid as internal standard) were added to 50/Th of reaction mixture aliquots. After vortexing, the quenched samples were frozen in a −70° C. deep freezer, followed by thawing and centrifugation at 14,000 rpm.
The CapB assay experiment included the following procedure. • 1. Preheat assay buffer: 0.1 M NaOAc/0.01 M DTT (pH 5.0) • 2. Spiking solutions for test compounds: 25 μM Spiking solutions for test compounds: Add […], of 5 mM stock solution into 398 μL of 0.1 M NaOAc/0.01 M DTT buffer (pH 5.0). • 3. Prepare 0.47m/μL Cathepsin B in 50 mM NaOAc/1 mM EDTA (pH 5.0). Put on ice. • 4. Without CA074 samples: Add […], of 0.47m/μL Cathepsin B into 196 μL of 25 μM Spiking solutions (from step 2), incubate the tubes at 37° C. • 5. With CA074 samples: Add 4 μL of 0.47m/μL Cathepsin B with 4 μL of 10 mM Inhibitor (CA074) into 196 μL of 25 μM Spiking solutions (from step 2), incubate the tubes at 37° C. • 6. After 4 hours, Aliquots of 5 μL (with CA074 and without CA074) were taken for enzyme activity test (step 15-17). Meanwhile, Aliquots of 50 μL were taken at the time point (4 h), adding 5 μL of acetic acid, and then add 150 μL of ACN (IS) to stop the reaction. • 7. After quenching, shake the plate and centrifuge them at 14000 rpm. • 8. Transfer 50 μL of the supernatant from each well into a 96-well sample plate containing 50 μL of ultra pure water (Millipore, ZMQS50F01) for LC/MS analysis.
The CapB assay experiment included the reference compounds and the following procedure. • 9. Preheat assay buffer: 100 mM Na/K phosphate, pH6.0, with 1.33 mM EDTA and 2 mM DTT. • 10. Prepare 0.024m/μL Cathepsin B: Add […] of 0.47 μg/μL Cathepsin B stock into 19 μL of assay buffer (from step 11). • 11. Add 2 μL of 0.024m/μL Cathepsin B (from step 12) to a opaque 96-well plate. • 12. Add 96 μL of assay buffer to each sample. • 13. Add 2 μL of the 10 mM substrate Z—RR-MNA(200 μM final concentration). • For negative control (with inhibitor), add 2 μL of 10 mM Inhibitor (CA074). • 14. Immediately read the samples in a kinetic mode at excitation of 340 nm/emission of 425 nm (Read the plate every 30 Second for 3 min).
Stability of Cathepsin B in incubation samples: • 15. Take Take 5 μL of incubation samples into 93 μL of assay buffer (from step 11), and then add 2 μL of 10 mM substrate (Z—RR-MNA). • 16. Incubate the samples at 37° C. for 2 min. • 17. Read the samples at excitation of 340 nm/emission of 425 nm.

Where [4] appears, read: Homo sapiens, 72 hours of incubation.
Where [5] appears, read: Homo sapiens, HEK293, 72 hours of incubation.

Sequence of Glucocorticoid Receptor (GR) (P04150 524-758): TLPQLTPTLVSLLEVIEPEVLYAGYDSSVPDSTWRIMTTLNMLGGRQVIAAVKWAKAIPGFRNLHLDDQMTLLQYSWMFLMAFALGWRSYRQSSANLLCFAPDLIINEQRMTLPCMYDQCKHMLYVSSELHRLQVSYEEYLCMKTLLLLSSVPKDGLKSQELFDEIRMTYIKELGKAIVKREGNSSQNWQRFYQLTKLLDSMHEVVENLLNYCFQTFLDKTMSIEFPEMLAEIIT

On to `CCCC1O[C@@H]2C[C@H]3[C@@H]4C[C@H](F)C5=CC(=O)C=C[C@]5(C)[C@@]4(F)[C@@H](O)C[C@]3(C)[C@]2(C(=O)CNC)O1` (stereo partly drawn) [11-21 R/S, (1S,2S,4R,8S,9S,11S,12R,13S,19S)-12,19-Difluoro-11-hydroxy-9,13-dimethyl-8-[2-(methylamino)acetyl]-6-propyl-5,7-dioxapentacyclo[10.8.0.0^2,90.0^4,80.0^13,18]icosa-14,17-dien-16-one; trifluoroacetic acid], for which the Emax in assay [1] (setting [4]) fell in the range of 20 to 75%. Moreover, the EC50 in assay [1] (setting [5]) lay within 0.01 to 0.1 µM. Further, the IC50 (as a rule, the concentration that gives 50% inhibition) in assay [2] was under 0.01 µM.
Turning to `C[C@@H]1C[C@H]2[C@@H]3C[C@H](F)C4=CC(=O)C=C[C@]4(C)[C@@]3(F)[C@@H](O)C[C@]2(C)[C@@]1(O)C(=O)CN` [Compound 4d, (1R,2S,8S,10S,11S,13R,14R,15S,17S)-14-(2-Aminoacetyl)-1,8-difluoro-14,17-dihydroxy-2,13,15-trimethyltetracyclo 18.7.0.0^2,70.0^11,15]heptadeca-3,6-dien-5-one trifluoroacetate], in assay [1] (Homo sapiens, HEK293), the EC50 was in the range of 0.01 to 0.05 µM. For the same molecule, the “HEK293/9xUAS-Luc2P/pBind-GR/PRLR-HA high cells activation relative to Budesonide” value in assay [1] is recorded as “Partial”. In assay [2], the concentration for half-maximal inhibition (IC50) lay in the range of 0.01 to 0.05 µM.
Turning to `CCCC1O[C@@H]2C[C@H]3[C@@H]4CCC5=CC(=O)C=C[C@]5(C)[C@@]4(F)[C@@H](O)C[C@]3(C)[C@]2(C(=O)CN)O1` (stereo partly drawn) [Compound 4h, (1S,2S,4R,8S,9S,11S,12R,13S)-8-(2-Aminoacetyl)-12-fluoro-11-hydroxy-9,13-dimethyl-6-propyl-5,7-dioxapentacyclo[10.8.0.0^2,9.0^4,8.0^13,18]icosa-14,17-dien-16-one], the EC50 in assay [1] (Homo sapiens, HEK293) was under 0.01 µM. For the same molecule, the “HEK293/9xUAS-Luc2P/pBind-GR/PRLR-HA high cells activation relative to Budesonide” value in assay [1] is “Full”. This molecule showed a 50% inhibitory concentration (IC50) in assay [2] of 0.01 to 0.05 µM.
`[2H]c1c([2H])c(OCC(=O)[C@@]23OC(CCC)O[C@@H]2C[C@H]2[C@@H]4C[C@H](F)C5=CC(=O)C=C[C@]5(C)[C@@]4(F)[C@@H](O)C[C@@]23C)c([2H])c([2H])c1N` (stereo partly drawn) [Compound 6-ID, (1S,2S,4R,8S,9S,11S,12R,13S,19S)-8-{2-[4-Amino(2,3,5,6-^2H4)phenoxy]acetyl}-12,19-difluoro-11-hydroxy-9,13-dimethyl-6-propyl-5,7-dioxapentacyclo[10.8.0.0^2,9.0^4,8.0^13,18]icosa-14,17-dien-16-one]: in assay [1] (Homo sapiens, HEK293), the EC50 is under 0.01 µM. Also, in assay [1], the “HEK293/9xUAS-Luc2P/pBind-GR/PRLR-HA high cells activation relative to Budesonide” value is given as “Full”. In assay [2], this molecule came in with an IC50 of under 0.01 µM.
For the molecule `CCCC1O[C@@H]2C[C@H]3[C@@H]4C[C@H](F)C5=CC(=O)C=C[C@]5(C)[C@@]4(F)[C@@H](O)C[C@]3(C)[C@]2(C(=O)COc2ccc(N)c(OC)c2)O1` (stereo partly drawn) [Compound 6-II, (1S,2S,4R,8S,9S,11S,12R,13S,19S)-8-[2-(4-Amino-3-methoxyphenoxy)acetyl]-12,19-difluoro-11-hydroxy-9,13-dimethyl-6-propyl-5,7-dioxapentacyclo[10.8.0.0^2,90.0^4,80.0^13,18]icosa-14,17-dien-16-one trifluoroacetate], the EC50 in assay [1] (Homo sapiens, HEK293) is under 0.01 µM. Also, in assay [1], the “HEK293/9xUAS-Luc2P/pBind-GR/PRLR-HA high cells activation relative to Budesonide” value was “Full”. In assay [2], the IC50 was under 0.01 µM.
In the case of `CCC(=O)O[C@]1(C(=O)CNC)[C@@H](C)C[C@H]2[C@@H]3C[C@H](F)C4=CC(=O)C=C[C@]4(C)[C@@]3(F)[C@@H](O)C[C@@]21C` [Compound 14-2, (1R,2S,8S,10S,11S,13S,14R,15S,17S)-1,8-difluoro-17-hydroxy-2,13,15-trimethyl-14-[2-(methylamino)acetyl]-5-oxotetracyclo[8.7.0.0^2,70.0^11,15]heptadeca-3,6-dien-14-yl propanoate], the Emax in assay [1] (setting [4]) is under 20%. Further, in assay [1] (setting [5]), the EC50 is over 0.1 µM. Moreover, the IC50 in assay [2] is under 0.01 µM.
Consider `C[C@@H]1C[C@H]2[C@@H]3C[C@H](F)C4=CC(=O)C=C[C@]4(C)[C@@]3(F)[C@@H](O)C[C@]2(C)[C@@]1(O)C(=O)COc1ccc(N)cc1` [Compound 15-5, (1R,2S,8S,10S,11S,13R,14R,155,17S)-14-[2-(4-Aminophenoxy)acetyl]-1,8-difluoro-14,17-dihydroxy-2,13,15-trimethyltetracyclo[8.7.0.0^2,70.0^11,15]heptadeca-3,6-dien-5 one], for which, in assay [1] (72 hours of incubation), the “Activation (fold activation relative to Budesonide) in HEK293/9xUAS-Luc2P/pBind-GR/PRLR-HA high cells” value is on record as “Full activation (Full activation: >75% of fold activation induced by Budesonide)” and the EC50 was 0.01 to 0.1 µM. The molecule also gave an IC50 in assay [2] of 0.01 to 0.1 µM.
Turning to `CCC[C@@H]1O[C@@H]2C[C@H]3[C@@H]4C[C@H](F)C5=CC(=O)C=C[C@]5(C)[C@@]4(F)[C@@H](O)C[C@]3(C)[C@]2(C(=O)COc2ccc(N)cc2)O1` [Compound R-6-I], in assay [1] (Homo sapiens, HEK293), the EC50 was under 0.01 µM. The “HEK293/9xUAS-Luc2P/pBind-GR/PRLR-HA high cells activation relative to Budesonide” value in assay [1] was “Full”. Besides, the IC50 in assay [2] is under 0.01 µM.
Consider `CCC[C@H]1O[C@@H]2C[C@H]3[C@@H]4C[C@H](F)C5=CC(=O)C=C[C@]5(C)[C@@]4(F)[C@@H](O)C[C@]3(C)[C@]2(C(=O)COc2ccc(N)cc2)O1` [Compound S-6-I, (1S,2S,4R,6S,8S,9S,11S,12R,13S,19S)-8-[2-(4-Aminophenoxy)acetyl]-12,19-difluoro-11-hydroxy-9,13-dimethyl-6-propyl-5,7-dioxapentacyclo[10.8.0.0^2,90.0^4,80.0^13,18]icosa-14,17-dien-16-one], for which the EC50 in assay [1] (Homo sapiens, HEK293) was under 0.01 µM. Moreover, in assay [1], the “HEK293/9xUAS-Luc2P/pBind-GR/PRLR-HA high cells activation relative to Budesonide” value was “Full”. The IC50 in assay [2] was under 0.01 µM.
Turning to `CCCC1O[C@@H]2C[C@H]3[C@@H]4C[C@H](F)C5=CC(=O)C=C[C@]5(C)[C@@]4(F)[C@@H](O)C[C@]3(C)[C@]2(C(=O)CNC(=O)OCc2ccc(NC(=O)[C@H](CCCNC(N)=O)NC(=O)[C@@H](NC(=O)[C@@H](N)CCCCNC(=O)COC3C#CCCCCC3)C(C)C)cc2)O1` (some centres unmarked) [LP101], the “Conversion rate (%)” value is under 1.00% in assay [3] (with CA074 (Cathepsin B inhibitor), 4 hr incubation) and 48.20% in assay [3] (without CA074, 4 hr incubation with Cathepsin B).
